Data reported in patent US9403832B2, “Pyrazolo[1,5-a]pyrimidine-based compounds, compositions comprising them, and methods of their use” (Lexicon Pharmaceuticals, Inc., priority 2012, dated 2016).

Molecular target: T1, AAK1 (Homo sapiens, UniProt Q2M2I8)
T1 construct: NP_055726.2
Assay: P81 filter plate assay
Type: biochemical
Conditions: full-length human AAK1, Mu2 substrate, 33P-ATP
Procedure: Compounds were serially diluted into a Labcyte LDV plate (Labcyte, cat#LP-0200) using a Mutiprobe (PerkinElmer) and Biomek FX (Beckman Coulter) so that the highest compound concentration was at 96 μM. Compounds were then pinged (75 nL per well) into a Greiner 384-well reaction plate (Greiner, #781076) using an ECHO 550 Liquid Handler (Labcyte). A total of 12 μl reaction buffer (IMAP buffer containing Tween and DTT, from Molecular Devices) was then added to each well of columns 1 and 13 for the negative controls and 12 μl of 2× AAK1 (0.2 nM full-length human protein, NCBI accession no. NP_055726.2) was added to the remaining wells. Enzyme was then pre-incubated with compound for 10 minutes at RT. Reactions were initiated upon Minitrak (PerkinElmer) addition of 12 μl substrate mix containing 2× Mu2 (0.2 μM, full length human protein), 2× cold ATP (2 μM), and 1.3 μCi of hot ^33P-ATP. […] proceeded for one hour at RT. Meanwhile, Millipore 384-well P81 filter plates (Millipore, catalog #MZPHNOW10) were placed on a plate washer (Zoom ZW, from Titertek) and pre-wet with 50 μl 1% phosphoric acid. Kinase reactions were then stopped upon addition of 24 μl of 2% phosphoric acid to each well and the Minitrak was then used to transfer 40 μl from each well into the pre-wet Millipore 384-well P81 filter plates. Reaction mixtures were incubated for 10 minutes at RT in the P81 plates, followed by washing five times with 100 μl/well of 1% phosphoric acid using the Zoom filter washer. The bottom of each filter plate was sealed followed by addition of 20 μl Microscint 40 to each well, sealing the top of the plates with Flashplate cover, and then waiting one hour until reading on the TopCount (PerkinElmer).

T1 sequence (Q2M2I8 1-863 isoform Q2M2I8-2): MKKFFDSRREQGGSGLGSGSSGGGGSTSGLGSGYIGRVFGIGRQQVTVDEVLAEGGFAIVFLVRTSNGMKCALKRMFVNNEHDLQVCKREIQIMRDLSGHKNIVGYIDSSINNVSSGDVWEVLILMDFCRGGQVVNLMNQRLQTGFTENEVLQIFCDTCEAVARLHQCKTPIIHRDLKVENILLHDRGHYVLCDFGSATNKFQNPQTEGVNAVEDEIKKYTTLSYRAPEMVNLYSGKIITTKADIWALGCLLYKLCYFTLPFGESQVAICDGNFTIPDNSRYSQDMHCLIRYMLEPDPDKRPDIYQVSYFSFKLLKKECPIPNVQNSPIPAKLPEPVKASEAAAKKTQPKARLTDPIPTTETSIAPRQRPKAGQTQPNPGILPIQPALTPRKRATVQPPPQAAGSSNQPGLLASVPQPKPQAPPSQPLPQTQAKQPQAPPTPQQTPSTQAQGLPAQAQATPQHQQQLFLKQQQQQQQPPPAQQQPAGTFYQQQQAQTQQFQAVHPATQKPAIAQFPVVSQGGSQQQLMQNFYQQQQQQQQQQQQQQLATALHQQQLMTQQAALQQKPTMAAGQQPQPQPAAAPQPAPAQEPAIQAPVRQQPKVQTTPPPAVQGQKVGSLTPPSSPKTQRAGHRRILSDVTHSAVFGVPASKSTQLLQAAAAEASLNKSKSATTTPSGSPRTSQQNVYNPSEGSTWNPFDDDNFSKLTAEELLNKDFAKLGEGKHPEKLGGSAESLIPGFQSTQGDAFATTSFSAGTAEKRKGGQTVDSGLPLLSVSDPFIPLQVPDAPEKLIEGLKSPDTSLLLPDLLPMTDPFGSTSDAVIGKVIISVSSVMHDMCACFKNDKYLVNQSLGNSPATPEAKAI

In the case of COc1ccc(-c2cnn3ccc(N4CC[C@H](N(C)C(=O)OC(C)C)C4)nc23)c(OC)n1 [(S)-isopropyl (1-(3-(2,6-dimethoxypyridin-3-yl)pyrazolo[1,5-a]pyrimidin-5-yl)pyrrolidin-3-yl)(methyl)carbamate], the IC50 is reported as ≤ 0.1 µM.

In the case of COc1ncc(C)cc1-c1cnn2ccc(N3CC[C@H](N(C)C(=O)OC(C)C)C3)nc12 [(S)-isopropyl (1-(3-(2-methoxy-5-methylpyridin-3-yl)pyrazolo[1,5-a]pyrimidin-5-yl)pyrrolidin-3-yl)(methyl)carbamate], the IC50 is reported as ≤ 0.01 µM.

For COc1ncc(F)cc1-c1cnn2ccc(N3CC[C@H](N(C)C(=O)OC(C)C)C3)nc12 [(S)-isopropyl (1-(3-(5-fluoro-2-methoxypyridin-3-yl)pyrazolo[1,5-a]pyrimidin-5-yl)pyrrolidin-3-yl)(methyl)carbamate], the IC50 was ≤ 0.1 µM.

In the case of CC(C)OC(=O)N(C)[C@H]1CCN(c2ccn3ncc(-c4ccccn4)c3n2)C1 [(S)-isopropyl methyl(1-(3-(pyridin-2-yl)pyrazolo[1,5-a]pyrimidin-5-yl)pyrrolidin-3-yl)carbamate], the IC50 is reported as ≤ 1 µM.

CCc1ccccc1-c1cnn2ccc(NC[C@@H]3CCCN3C(=O)OC(C)(C)C)nc12 [(S)-tert-butyl 2-(((3-(2-ethylphenyl)pyrazolo[1,5-a]pyrimidin-5-yl)amino)methyl)pyrrolidine-1-carboxylate] was tested, and the IC50 was ≤ 0.01 µM.

For CC(C)(C)OC(=O)N1CCC[C@H]1CNc1ccn2ncc(-c3ccc(C(N)=O)cc3)c2n1 [(S)-tert-butyl 2-(((3-(4-carbamoylphenyl)pyrazolo[1,5-a]pyrimidin-5-yl)amino)methyl)pyrrolidine-1-carboxylate], the IC50 was ≤ 0.01 µM.

In the case of CC(C)(C)OC(=O)N1CCC[C@H]1CNc1ccn2ncc(C(F)(F)F)c2n1 [(S)-tert-butyl 2-(((3-(trifluoromethyl)pyrazolo[1,5-a]pyrimidin-5-yl)amino)methyl)pyrrolidine-1-carboxylate], the IC50 is reported as ≤ 0.01 µM.

With CC(C)(C)OC(=O)N1CCC[C@H]1CNc1ccn2ncc(-c3ccccc3)c2n1 [(S)-tert-butyl 2-(((3-phenylpyrazolo[1,5-a]pyrimidin-5-yl)amino)methyl)pyrrolidine-1-carboxylate] the IC50 was ≤ 0.01 µM.

CN(C(=O)OC(C)(C)C)[C@H]1CCN(c2ccn3ncc(-c4ccccn4)c3n2)C1 [(S)-tert-butyl methyl(1-(3-(pyridin-2-yl)pyrazolo[1,5-a]pyrimidin-5-yl)pyrrolidin-3-yl)carbamate] was tested, and the IC50 was ≤ 1 µM.

COc1nc(C)ccc1-c1cnn2ccc(NCCOC(C)(C)C)nc12 [N-(2-(tert-butoxy)ethyl)-3-(2-methoxy-6-methylpyridin-3-yl)pyrazolo[1,5-a]pyrimidin-5-amine] was tested, and the IC50 was ≤ 0.1 µM.

In the case of COc1ncccc1-c1cnn2ccc(NCCOC(C)(C)C)nc12 [N-(2-(tert-butoxy)ethyl)-3-(2-methoxypyridin-3-yl)pyrazolo[1,5-a]pyrimidin-5-amine], the IC50 is reported as ≤ 0.01 µM.

In the case of CCCC(=O)Nc1ccn2ncc(-c3cccnc3OC)c2n1 [N-(3-(2-methoxypyridin-3-yl)pyrazolo[1,5-a]pyrimidin-5-yl)butyramide], the IC50 is reported as ≤ 0.1 µM.

In the case of COc1nc(C)ccc1-c1cnn2ccc(N(C)CCCOC(C)(C)C)nc12 [N-(3-(tert-butoxy)propyl)-3-(2-methoxy-6-methylpyridin-3-yl)-N-methylpyrazolo[1,5-a]pyrimidin-5-amine], the IC50 is reported as ≤ 0.1 µM.

COc1nc(C)ccc1-c1cnn2ccc(NCCCOC(C)(C)C)nc12 [N-(3-(tert-butoxy)propyl)-3-(2-methoxy-6-methylpyridin-3-yl)pyrazolo[1,5-a]pyrimidin-5-amine] was tested, and the IC50 was ≤ 0.01 µM.

COc1ncccc1-c1cnn2ccc(N(C)CCCOC(C)(C)C)nc12 [N-(3-(tert-butoxy)propyl)-3-(2-methoxypyridin-3-yl)-N-methylpyrazolo[1,5-a]pyrimidin-5-amine] was tested, and the IC50 was ≤ 0.1 µM.

In the case of CCOC(=O)N1CCN(c2ccn3ncc(-c4ccc(OC)nc4OC)c3n2)CC1 [ethyl 4-(3-(2,6-dimethoxypyridin-3-yl)pyrazolo[1,5-a]pyrimidin-5-yl)piperazine-1-carboxylate], the IC50 is reported as ≤ 0.01 µM.

In the case of CCOC(=O)N1CCN(c2ccn3ncc(-c4cc(F)ccc4OC)c3n2)CC1 [ethyl 4-(3-(5-fluoro-2-methoxyphenyl)pyrazolo[1,5-a]pyrimidin-5-yl)piperazine-1-carboxylate], the IC50 is reported as ≤ 0.01 µM.

In the case of COc1ncccc1-c1cnn2ccc(N3CCN(C(=O)OC(C)C)C3=O)nc12 [isopropyl 3-(3-(2-methoxypyridin-3-yl)pyrazolo[1,5-a]pyrimidin-5-yl)-2-oxoimidazolidine-1-carboxylate], the IC50 is reported as ≤ 1 µM.

Cc1ccc(-c2cnn3ccc(N4CCN(C(=O)OC(C)C)CC4)nc23)c(=O)n1C [isopropyl 4-(3-(1,6-dimethyl-2-oxo-1,2-dihydropyridin-3-yl)pyrazolo[1,5-a]pyrimidin-5-yl)piperazine-1-carboxylate] was tested, and the IC50 was ≤ 0.01 µM.

In the case of CC(C)OC(=O)N1CCN(c2ccn3ncc(-c4cccn(C)c4=O)c3n2)CC1 [isopropyl 4-(3-(1-methyl-2-oxo-1,2-dihydropyridin-3-yl)pyrazolo[1,5-a]pyrimidin-5-yl)piperazine-1-carboxylate], the IC50 is reported as ≤ 0.01 µM.

With CC(C)OC(=O)N1CCN(c2ccn3ncc(-c4cccc5[nH]cnc45)c3n2)CC1 [isopropyl 4-(3-(1H-benzo[d]imidazol-4-yl)pyrazolo[1,5-a]pyrimidin-5-yl)piperazine-1-carboxylate] the IC50 was ≤ 0.1 µM.

With CC(C)OC(=O)N1CCN(c2ccn3ncc(-c4cccnc4OCCN(C)C)c3n2)CC1 [isopropyl 4-(3-(2-(2-(dimethylamino)ethoxy)pyridin-3-yl)pyrazolo[1,5-a]pyrimidin-5-yl)piperazine-1-carboxylate] the IC50 was ≤ 0.1 µM.

For COCCOc1ccccc1-c1cnn2ccc(N3CCN(C(=O)OC(C)C)CC3)nc12 [isopropyl 4-(3-(2-(2-methoxyethoxy)phenyl)pyrazolo[1,5-a]pyrimidin-5-yl)piperazine-1-carboxylate], the IC50 was ≤ 0.1 µM.

For COCCOc1ncccc1-c1cnn2ccc(N3CCN(C(=O)OC(C)C)CC3)nc12 [isopropyl 4-(3-(2-(2-methoxyethoxy)pyridin-3-yl)pyrazolo[1,5-a]pyrimidin-5-yl)piperazine-1-carboxylate], the IC50 was ≤ 0.1 µM.

For COCc1ccccc1-c1cnn2ccc(N3CCN(C(=O)OC(C)C)CC3)nc12 [isopropyl 4-(3-(2-(methoxymethyl)phenyl)pyrazolo[1,5-a]pyrimidin-5-yl)piperazine-1-carboxylate], the IC50 was ≤ 1 µM.

CSc1ncccc1-c1cnn2ccc(N3CCN(C(=O)OC(C)C)CC3)nc12 [isopropyl 4-(3-(2-(methylthio)pyridin-3-yl)pyrazolo[1,5-a]pyrimidin-5-yl)piperazine-1-carboxylate] was tested, and the IC50 was ≤ 0.1 µM.

For CC(C)OC(=O)N1CCN(c2ccn3ncc(-c4cccnc4N)c3n2)CC1 [isopropyl 4-(3-(2-aminopyridin-3-yl)pyrazolo[1,5-a]pyrimidin-5-yl)piperazine-1-carboxylate], the IC50 was ≤ 0.1 µM.

In the case of CCOc1ncccc1-c1cnn2ccc(N3CCN(C(=O)OC(C)C)CC3)nc12 [isopropyl 4-(3-(2-ethoxypyridin-3-yl)pyrazolo[1,5-a]pyrimidin-5-yl)piperazine-1-carboxylate], the IC50 is reported as ≤ 0.01 µM.

With COc1ccc(-c2cnn3ccc(N4CCN(C(=O)OC(C)C)CC4)nc23)c(F)n1 [isopropyl 4-(3-(2-fluoro-6-methoxypyridin-3-yl)pyrazolo[1,5-a]pyrimidin-5-yl)piperazine-1-carboxylate] the IC50 was ≤ 0.1 µM.

In the case of CC(C)OC(=O)N1CCN(c2ccn3ncc(-c4cccnc4F)c3n2)CC1 [isopropyl 4-(3-(2-fluoropyridin-3-yl)pyrazolo[1,5-a]pyrimidin-5-yl)piperazine-1-carboxylate], the IC50 is reported as ≤ 0.01 µM.

In the case of COc1nc(C)ccc1-c1cnn2ccc(N3CCN(C(=O)OC(C)C)CC3)nc12 [isopropyl 4-(3-(2-methoxy-6-methylpyridin-3-yl)pyrazolo[1,5-a]pyrimidin-5-yl)piperazine-1-carboxylate], the IC50 is reported as ≤ 0.01 µM.

In the case of COc1ccccc1-c1cnn2ccc(N3CCN(C(=O)OC(C)C)CC3)nc12 [isopropyl 4-(3-(2-methoxyphenyl)pyrazolo[1,5-a]pyrimidin-5-yl)piperazine-1-carboxylate], the IC50 is reported as ≤ 0.01 µM.

COc1cc(-c2cnn3ccc(N4CCN(C(=O)OC(C)C)CC4)nc23)ccn1 [isopropyl 4-(3-(2-methoxypyridin-4-yl)pyrazolo[1,5-a]pyrimidin-5-yl)piperazine-1-carboxylate] was tested, and the IC50 was ≤ 0.1 µM.

In the case of Cc1ncccc1-c1cnn2ccc(N3CCN(C(=O)OC(C)C)CC3)nc12 [isopropyl 4-(3-(2-methylpyridin-3-yl)pyrazolo[1,5-a]pyrimidin-5-yl)piperazine-1-carboxylate], the IC50 is reported as ≤ 0.1 µM.

COc1c(F)cccc1-c1cnn2ccc(N3CCN(C(=O)OC(C)C)CC3)nc12 [isopropyl 4-(3-(3-fluoro-2-methoxyphenyl)pyrazolo[1,5-a]pyrimidin-5-yl)piperazine-1-carboxylate] was tested, and the IC50 was ≤ 0.1 µM.

For Cc1ccc(-c2cnn3ccc(N4CCN(C(=O)OC(C)C)CC4)nc23)cc1F [isopropyl 4-(3-(3-fluoro-4-methylphenyl)pyrazolo[1,5-a]pyrimidin-5-yl)piperazine-1-carboxylate], the IC50 was ≤ 0.1 µM.
